Test results: US8461329B2, “Isoquinoline derivative” (Taisho Pharmaceutical Co., Ltd., priority 2008, dated 2013)

What follows are compounds tested against T1, CRTH2 (KB8 cells) (Homo sapiens, UniProt Q9Y5Y4) (assay: CRTH2 antagonist test (PGD2-induced intracellular calcium ion concentration increase in KB8 cells)). Conditions: PGD2 100 nM, Fluo-4 calcium fluorescence, read-out: CRTH2 antagonist activity IC50 value.
T1 construct: host or cells: KB8 cells (human CRTH2 expression cell)
T1 sequence (Q9Y5Y4 1-395): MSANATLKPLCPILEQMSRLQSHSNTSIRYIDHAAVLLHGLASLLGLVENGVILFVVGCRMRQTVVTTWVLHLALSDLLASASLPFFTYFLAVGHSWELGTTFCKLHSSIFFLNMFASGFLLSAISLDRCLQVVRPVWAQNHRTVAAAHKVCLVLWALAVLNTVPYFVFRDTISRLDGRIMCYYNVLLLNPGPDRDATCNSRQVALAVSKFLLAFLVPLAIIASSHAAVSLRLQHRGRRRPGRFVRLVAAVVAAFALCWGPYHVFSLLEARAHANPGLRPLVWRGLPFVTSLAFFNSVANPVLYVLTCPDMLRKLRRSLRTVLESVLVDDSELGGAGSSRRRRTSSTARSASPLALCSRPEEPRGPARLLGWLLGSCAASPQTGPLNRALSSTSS
Assay type: cell-based
Procedure, shortened: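 Fluo-4-AM-loaded KB8 cells in HBSS with 10 mM HEPES and 1 mM CaCl2 received compound plus PGD2 (final 100 nM); peak fluorescence followed over time. Inhibition was computed against no-compound and unlabelled-PGD2 controls, and IC50 obtained from a dose-response curve.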

In the case of O=C(O)Cc1cnc(Cc2ccc(C(=O)NCCC34CC5CC(CC(C5)C3)C4)cc2)c2ccccc12 [Example 240], the IC50 is reported as 6.6 nM.

Same assay, conditions: PGD2 final concentration 100 nM, Fluo-4-AM fluorescence, read-out: antagonist activity (IC50 value, inhibition of calcium ion concentration increase)

First: O=C(O)Cc1cnc(C(=O)c2ccc(NC(=O)c3ccc(Oc4ccccc4)cc3)cc2)c2ccccc12 [Example 9]
Second: O=C(O)Cc1cnc(C(=O)c2ccc(NC(=O)c3ccccc3)cc2)c2ccccc12 [Example 38]
The IC50 of the first is higher: 50 to 500 nM for the first, under 50 nM for the second. The second is the more potent here.

O=C(O)Cc1cnc(C(=O)c2ccc(C(=O)Nc3ccc(Cl)c(Cl)c3)cc2)c2ccccc12 [Example 136] and O=C(O)Cc1cnc(C(=O)c2ccc(NC(=O)c3ccc(Cl)c(Cl)c3)cc2)c2ccccc12 [Example 2, {1-[(4-{[(3,4-dichlorophenyl)carbonyl]amino}phenyl)carbonyl]isoquinolin-4-yl}acetic acid] cannot be ordered by IC50: under 50 nM for the first, under 50 nM for the second.

First: O=C(O)Cc1cnc(C(=O)c2ccc(NC(=O)c3cc4cc(Cl)ccc4[nH]3)cc2)c2ccccc12 [Example 92]
Second: O=C(O)Cc1cnc(C(=O)c2ccc(NC(=O)c3ccc(Cl)cc3Cl)cc2)c2ccccc12 [Example 41]
The IC50 of the first is lower: under 50 nM for the first, 50 to 500 nM for the second. The first is the more potent here.

Cc1ccccc1CCNC(=O)c1ccc(Cc2ncc(CC(=O)O)c3ccccc23)cc1 [Example 167] and Cc1cccc(CCNC(=O)c2ccc(Cc3ncc(CC(=O)O)c4ccccc34)cc2)c1 [Example 166] cannot be ordered by IC50: under 50 nM for the first, under 50 nM for the second.

First: COc1ccc(CCNC(=O)c2ccc(Cc3ncc(CC(=O)O)c4ccccc34)cc2)cc1OC [Example 189]
Second: COc1ccc(CCNC(=O)c2ccc(Cc3ncc(CC(=O)O)c4ccccc34)cc2)cc1C [Example 171]
The IC50 of the first is higher: at least 1000 nM for the first, 50 to 500 nM for the second.

First: Cc1cc(C)cc(C(=O)Nc2ccc(C(=O)c3ncc(CC(=O)O)c4ccccc34)cc2)c1 [Example 103]
Second: O=C(O)Cc1cnc(C(=O)c2ccc(NC(=O)c3cccc(F)c3)cc2)c2ccccc12 [Example 71]
The IC50 of the first is lower: under 50 nM for the first, 50 to 500 nM for the second.

First: Cc1cc(C)cc(CCNC(=O)c2ccc(Cc3ncc(CC(=O)O)c4ccccc34)cc2)c1 [Example 231]
Second: Cc1ccc(CCNC(=O)c2ccc(Cc3ncc(CC(=O)O)c4ccccc34)cc2)cc1C [Example 168]
The IC50 of the first is lower: under 50 nM for the first, 50 to 500 nM for the second. The first is the more potent here.

First: Cn1c(C(=O)Nc2ccc(C(=O)c3ncc(CC(=O)O)c4ccccc34)cc2)cc2ccccc21 [Example 123]
Second: Cc1ccccc1C(=O)Nc1ccc(C(=O)c2ncc(CC(=O)O)c3ccccc23)cc1 [Example 26]
The IC50 of the first is lower: under 50 nM for the first, 50 to 500 nM for the second. The first is the more potent here.

Compared with CC(C)=CC(=O)Nc1ccc(C(=O)c2ncc(CC(=O)O)c3ccccc23)cc1 [Example 65], CCCCC(=O)Nc1ccc(C(=O)c2ncc(CC(=O)O)c3ccccc23)cc1 [Example 80] is lower in IC50: 500 to 1000 nM for the first, 50 to 500 nM for the second. The second is the more potent here.

First: COc1ccc(CCNC(=O)c2ccc(Cc3ncc(CC(=O)O)c4ccccc34)cc2)cc1 [Example 156]
Second: O=C(O)Cc1cnc(Cc2ccc(C(=O)NCCc3ccc(C(=O)O)cc3)cc2)c2ccccc12 [Example 173]
The IC50 of the first is lower: 50 to 500 nM for the first, at least 1000 nM for the second. The first is the more potent here.

Compared with O=C(O)Cc1cnc(Cc2ccc(C(=O)NCCc3cc(C(F)(F)F)cc(C(F)(F)F)c3)cc2)c2ccccc12 [Example 222], O=C(O)Cc1cnc(Cc2ccc(C(=O)NCCc3cc(F)cc(Cl)c3)cc2)c2ccccc12 [Example 216] is higher in IC50: under 50 nM for the first, 50 to 500 nM for the second.

First: O=C(O)Cc1cnc(Cc2ccc(C(=O)NCCc3cc(F)ccc3Cl)cc2)c2ccccc12 [Example 228]
Second: O=C(O)Cc1cnc(Cc2ccc(C(=O)NCCc3cccc(F)c3)cc2)c2ccccc12 [Example 182]
The IC50 of the first is lower: under 50 nM for the first, 50 to 500 nM for the second. The first is the more potent here.

COc1ccc2c(C(=O)c3ccc(C(=O)NCCc4ccc(Cl)cc4)cc3)ncc(CC(=O)O)c2c1 [Example 260, {1-[(4-{[2-(4-chlorophenyl)ethyl]carbamoyl}phenyl)carbonyl]-6-methoxyisoquinolin-4-yl}acetic acid] and COc1ccc(CCNC(=O)c2ccc(Cc3ncc(CC(=O)O)c4ccccc34)cc2)cc1Cl [Example 170] fall in the same range of IC50: 50 to 500 nM for the first, 50 to 500 nM for the second.

First: O=C(O)Cc1cnc(C(=O)c2ccc(NC(=O)C3=CCCCC3)cc2)c2ccccc12 [Example 90]
Second: O=C(O)Cc1cnc(C(=O)c2ccc(NC(=O)c3ccncc3)cc2)c2ccccc12 [Example 51]
The IC50 of the first is lower: 50 to 500 nM for the first, at least 1000 nM for the second.

First: O=C(O)Cc1cnc(Cc2ccc(OCCCc3ccc(Cl)cc3)cc2)c2ccccc12 [Example 150]
Second: O=C(O)Cc1cnc(Cc2ccc(C(=O)NCCc3ccc(F)c(F)c3)cc2)c2ccccc12 [Example 229]
The IC50 of the first is higher: 50 to 500 nM for the first, under 50 nM for the second. The second is the more potent here.

Compared with O=C(O)Cc1cnc(Cc2ccc(C(=O)NCCc3nc4ccccc4[nH]3)cc2)c2ccccc12 [Example 248], O=C(O)Cc1cnc(Cc2ccc(C(=O)NCCc3ccc4ccccc4c3)cc2)c2ccccc12 [Example 205] is lower in IC50: 50 to 500 nM for the first, under 50 nM for the second.

Going from O=C(O)Cc1cnc(Cc2ccc(C(=O)NCCc3cccnc3)cc2)c2ccccc12 [Example 176] to O=C(O)Cc1cnc(Cc2ccc(C(=O)NCCc3ccccc3Oc3ccccc3)cc2)c2ccccc12 [Example 243], the IC50 falls from at least 1000 nM to under 50 nM. The second is the more potent here.

First: COc1cc(C(=O)Nc2ccc(C(=O)c3ncc(CC(=O)O)c4ccccc34)cc2)cc(OC)c1OC [Example 63]
Second: O=C(O)Cc1cnc(C(=O)c2ccc(NC(=O)c3c(Cl)cc(Cl)cc3Cl)cc2)c2ccccc12 [Example 48]
The IC50 of the first is lower: 50 to 500 nM for the first, at least 1000 nM for the second.

O=C(O)Cc1cnc(C(=O)c2ccc(NC(=O)c3ccccc3Br)cc2)c2ccccc12 [Example 25] and O=C(O)Cc1cnc(C(=O)c2ccc(NC(=O)c3ccccc3Cl)cc2)c2ccccc12 [Example 24] cannot be ordered by IC50: at least 1000 nM for the first, at least 1000 nM for the second.

Compared with Cc1ccc(S(=O)(=O)NCC(=O)Nc2ccc(C(=O)c3ncc(CC(=O)O)c4ccccc34)cc2)cc1 [Example 68], O=C(O)Cc1cnc(C(=O)c2ccc(NC(=O)c3ccc(Br)cc3)cc2)c2ccccc12 [Example 32] is lower in IC50: 50 to 500 nM for the first, under 50 nM for the second. The second is the more potent here.

First: O=C(O)Cc1cnc(C(=O)c2ccc(Oc3ccccc3)cc2)c2ccccc12 [Example 145]
Second: C/C(=C\c1ccccc1)C(=O)Nc1ccc(C(=O)c2ncc(CC(=O)O)c3ccccc23)cc1 [Example 78]
The IC50 of the first is higher: at least 1000 nM for the first, under 50 nM for the second.

Compared with O=C(O)Cc1cnc(Cc2ccc(C(=O)NCCC34CC5CC(CC(C5)C3)C4)cc2)c2ccccc12 [Example 240], O=C(O)Cc1cnc(C(=O)c2ccc(NC(=O)CC34CC5CC(CC(C5)C3)C4)cc2)c2ccccc12 [Example 53] is higher in IC50: under 50 nM for the first, 50 to 500 nM for the second. The first is the more potent here.

For O=C(O)Cc1cnc(C(=O)c2ccc(NC(=O)c3cccc(Cl)c3Cl)cc2)c2ccccc12 [Example 30], the IC50 was 500 to 1000 nM.

What follows are compounds tested against T2, human CRTH2 expression cell KB8 (Homo sapiens, UniProt Q9Y5Y4) (assay: CRTH2 binding test (3H-PGD2 binding to KB8 cells)). Conditions: 3H-PGD2 5 nM, 4° C., one hour, IC50 class, read-out: binding inhibitory activity.
T2 construct: host or cells: KB8 cells (human CRTH2 expression cell)
T2 sequence (Q9Y5Y4 1-395): T1 sequence (Q9Y5Y4 1-395)
Procedure: CRTH2 binding inhibitory activity of the compound of the present invention was considered by using a binding test between human CRTH2 expression cell KB8 (BML, INC.) and ^3H-labeled prostaglandin D2 (hereinafter, abbreviated as ^3H-PGD2, manufactured by GE Healthcare).
KB8 was suspended in a reaction buffer solution (Hank's balanced salt solution (Invitrogen) containing 10 mM HEPES (Invitrogen)), which was dispensed in a 96 well plate (Coaster) so that 2×10^5 cells/well are placed. Furthermore, the compound of the present invention and ^3H-PGD2 (final concentration: 5 nM) were added, stirred, and incubated at 4° C.
One hour later, cells were collected on GF/C Filter Plate (PerkinElmer) that had been pre-coated with 0.5% polyethyleneimine solution (SIGMA) by using a Cell Harvester (Packard BioScience), and the radioactivity of the cells was measured by using Top count NXT (PerkinElmer) (a value measured herein was represented by a measurement value “a”). The same procedure was carried out in the absence of the compound, and a measurement value “b” was obtained; and the same procedure was carried out in the absence of the compound and in the presence of non-labeled PGD2 (final concentration: 50 μM), a measurement value “c” was obtained.
The binding inhibition rate of the compound was calculated by the following calculation formula: Bonding inhibitory rate(%)=[1−(a−c)/(b−c)]×100
That is to say, by using binding inhibition rates of compounds to be tested having various concentrations, the IC50 value was calculated according to a dose-dependent inhibition curve analyzed by using XLfit (IDBS) as a data analysis software, and the calculated value was defined as an indicator of the inhibitory activity. In Table 9, A denotes an inhibitory activity showing the IC50 value of less than 50 nM; B denotes an inhibitory activity showing the IC50 value of 50 nM or greater and less than 500 nM; C denotes an inhibitory activity showing the IC50 value of 500 nM or greater and less than 1000 nM; and D denotes an inhibitory activity showing the IC50 value of 1000 nM or greater.

O=C(O)Cc1cnc(C(=O)c2ccc(NC(=O)c3ccc(Oc4ccccc4)cc3)cc2)c2ccccc12 [Example 9] and O=C(O)Cc1cnc(C(=O)c2ccc(C(=O)Nc3ccc(Cl)c(Cl)c3)cc2)c2ccccc12 [Example 136] cannot be ordered by IC50: under 50 nM for the first, under 50 nM for the second.

First: O=C(O)Cc1cnc(C(=O)c2cccc(NC(=O)c3ccc(Cl)c(Cl)c3)c2)c2ccccc12 [Example 127, {1-[(3-{[(3,4-dichlorophenyl)carbonyl]amino}phenyl)carbonyl]isoquinolin-4-yl}acetic acid]
Second: O=C(O)Cc1cnc(C(=O)c2ccc(NC(=O)c3ccc(Cl)c(Cl)c3)cc2)c2ccccc12 [Example 2, {1-[(4-{[(3,4-dichlorophenyl)carbonyl]amino}phenyl)carbonyl]isoquinolin-4-yl}acetic acid]
The IC50 of the first is higher: 50 to 500 nM for the first, under 50 nM for the second.

O=C(O)Cc1cnc(C(=O)c2ccc(NC(=O)c3cc4cc(Cl)ccc4[nH]3)cc2)c2ccccc12 [Example 92] and O=C(O)Cc1cnc(C(=O)c2ccc(NC(=O)c3ccccn3)cc2)c2ccccc12 [Example 16] cannot be ordered by IC50: under 50 nM for the first, under 50 nM for the second.

First: CC(=O)Nc1ccc(C(=O)c2ncc(CC(=O)O)c3ccccc23)cc1 [Example 19]
Second: O=C(O)Cc1cnc(C(=O)c2ccc(NC(=O)C3CC3)cc2)c2ccccc12 [Example 20]
The IC50 of the first is higher: 50 to 500 nM for the first, under 50 nM for the second.

O=C(O)Cc1cnc(C(=O)c2ccc(NS(=O)(=O)c3ccc(Cl)c(Cl)c3)cc2)c2ccccc12 [Example 129, {1-[(4-{[(3,4-dichlorophenyl)sulfonyl]amino}phenyl)carbonyl]isoquinolin-4-yl}acetic acid] and CN(C(=O)c1ccc(Cl)c(Cl)c1)c1ccc(C(=O)c2ncc(CC(=O)O)c3ccccc23)cc1 [Example 128, {1-[(4-{[(3,4-dichlorophenyl)carbonyl](methyl)amino}phenyl)carbonyl]isoquinolin-4-yl}acetic acid] fall in the same range of IC50: 50 to 500 nM for the first, 50 to 500 nM for the second.

In the case of O=C(O)Cc1cnc(C(=O)c2ccc(Cc3ccccc3)cc2)c2ccccc12 [Example 144, {1-[(4-benzyl phenyl)carbonyl]isoquinolin-4-yl}acetic acid], the IC50 is reported as 50 to 500 nM.
